Data: patent US20030228279A1, “Compositions and methods for viral delivery” (Corixa Corporation, priority 2001, published 2003)
Entries after “also recorded” stand apart in the source; their conditions may differ. Like-named read-outs stand apart in the source and are kept apart here.

How the values were obtained:
[1] = tested on: red blood cells; settings: cited from earlier work
[2] = in vivo; cited from earlier work
[3] = cited from earlier work
[4] = tested on: sheep red blood cells; settings: cited from earlier work
[5] = Aqueous solubility; assay type: physicochemical; settings: at physiologic pH
Description: Aqueous solubility is a desirable characteristic of adjuvant-active saponins and aids in vaccine formulation and efficacy (Kensil, 1996). Unlike oil-based emulsions and mineral salt adjuvants which can denature antigens and prevent protective effects, saponins are non-denaturing adjuvants due to their high aqueous solubility. Their high water solubility also obviates extensive homogenation procedures required for emulsion-type adjuvants, permitting simple mixing of aqueous adjuvant and antigen solutions prior to immunization. […] Water-soluble O-glycosides of simple hydroxybenzaldehydes (e.g., helicin (31)) not only occur in nature but readily form stable Schiff-base derivatives as well (see, The Merck Index, 12th ed.; Merck & Co., Inc.: Whitehouse Station, N.J., 1996) The synthetically simpler succinate (VI) is also useful since succinic acid constitutes a simple 4-carbon isostere for the glucuronic acid moiety and has been used to impart triterpenes with aqueous solubility (see, Gottfried and Baxendale, U.S. Pat. No. 3,070,623, 1962).

Compound	hemolytic activity towards red blood cells [1]	adjuvant activity [2]	critical micellar concentration in phosphate buffered saline [3]	critical micellar concentration in water [3]	concentrations causing hemolysis of sheep red blood cells ([4]; sheep red blood cells)	concentrations causing no detectable hemolysis of sheep red blood cells [4]	concentrations causing hemolysis of sheep red blood cells [4]	aqueous solubility [5]
C[C@@H]1CC[C@@]2(OC1)O[C@H]1[C@@H](O)[C@H]3[C@@H]4CC[C@H]5C[C@@H](O[C@@H]6O[C@H](CO)[C@H](O[C@@H]7O[C@H](CO)[C@@H](O)[C@H](O[C@@H]8OC[C@@H](O)[C@H](O)[C@H]8O)[C@H]7O[C@@H]7O[C@H](CO)[C@H](O)[C@H](O[C@@H]8O[C@H](CO)[C@@H](O)[C@H](O)[C@H]8O)[C@H]7O)[C@H](O)[C@H]6O)[C@H](O)C[C@]5(C)[C@H]4CC[C@]3(C)[C@H]1[C@@H]2C [digitonin]	highly hemolytic	adjuvant-inactive						
QS-21		potent adjuvants	~0.02 % (w/v)	about 0.03 % (w/v)	≥ 25000 ng/mL			
QS-7	non-hemolytic	potent adjuvants; also recorded: potent inducer of cell-mediated and humoral responses	~0.07%	approximately 0.06%		≤ 200000 ng/mL		
QS-18		potent adjuvants	0.02 % (w/v)	0.04 % (w/v)			≥ 25000 ng/mL	
QS-17		potent adjuvants	0.03 % (w/v)	0.06 % (w/v)			≥ 25000 ng/mL	
O=Cc1cc(OCc2ccc(C(=O)O)cc2)ccc1O [isotucaresol]								sparingly soluble
